Counter-ions that a name gives are not always drawn. Like-named read-outs stand apart in the source and are kept apart here.
How the values were obtained:
[1] = target: purified human Factor XIa (Homo sapiens (Human), UniProt P03951); assay: Factor XIa enzyme inhibition assay (chromogenic substrate S-2366)
[2] = target: purified human plasma kallikrein (Homo sapiens (Human), UniProt P03952); assay: Plasma kallikrein enzyme inhibition assay (chromogenic substrate S-2302); assay type: biochemical
[3] = read-out: Factor XIa Ki, measured at 25° C.
[4] = measured at 25° C. (no asterisk)

purified human plasma kallikrein, sequence (P03952 391-638): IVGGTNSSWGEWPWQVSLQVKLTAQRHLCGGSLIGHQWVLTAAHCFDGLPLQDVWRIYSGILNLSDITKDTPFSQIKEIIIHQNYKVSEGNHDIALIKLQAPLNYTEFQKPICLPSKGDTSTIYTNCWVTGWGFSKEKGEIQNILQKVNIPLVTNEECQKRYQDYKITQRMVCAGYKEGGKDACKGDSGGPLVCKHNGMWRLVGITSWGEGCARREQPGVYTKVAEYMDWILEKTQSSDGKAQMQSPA
purified human plasma kallikrein, sequence (P03952 20-390 partner): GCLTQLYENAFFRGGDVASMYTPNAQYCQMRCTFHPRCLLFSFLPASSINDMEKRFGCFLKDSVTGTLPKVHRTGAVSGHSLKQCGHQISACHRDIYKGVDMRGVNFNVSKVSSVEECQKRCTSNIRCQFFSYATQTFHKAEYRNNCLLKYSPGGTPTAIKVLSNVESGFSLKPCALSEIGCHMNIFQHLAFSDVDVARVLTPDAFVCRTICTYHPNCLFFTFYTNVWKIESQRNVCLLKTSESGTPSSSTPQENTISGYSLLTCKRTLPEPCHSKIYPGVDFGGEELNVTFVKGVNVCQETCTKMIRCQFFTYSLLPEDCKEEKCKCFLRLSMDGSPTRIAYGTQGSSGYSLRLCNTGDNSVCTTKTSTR
purified human Factor XIa, sequence (P03951 388-625): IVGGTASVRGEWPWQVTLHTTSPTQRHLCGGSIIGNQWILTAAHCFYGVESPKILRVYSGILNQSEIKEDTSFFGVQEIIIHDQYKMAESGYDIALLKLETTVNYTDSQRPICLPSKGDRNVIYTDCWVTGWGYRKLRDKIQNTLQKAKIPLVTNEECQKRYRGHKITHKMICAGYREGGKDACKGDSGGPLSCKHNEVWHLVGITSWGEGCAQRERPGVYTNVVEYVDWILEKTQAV
purified human Factor XIa, sequence (P03951 19-387 partner): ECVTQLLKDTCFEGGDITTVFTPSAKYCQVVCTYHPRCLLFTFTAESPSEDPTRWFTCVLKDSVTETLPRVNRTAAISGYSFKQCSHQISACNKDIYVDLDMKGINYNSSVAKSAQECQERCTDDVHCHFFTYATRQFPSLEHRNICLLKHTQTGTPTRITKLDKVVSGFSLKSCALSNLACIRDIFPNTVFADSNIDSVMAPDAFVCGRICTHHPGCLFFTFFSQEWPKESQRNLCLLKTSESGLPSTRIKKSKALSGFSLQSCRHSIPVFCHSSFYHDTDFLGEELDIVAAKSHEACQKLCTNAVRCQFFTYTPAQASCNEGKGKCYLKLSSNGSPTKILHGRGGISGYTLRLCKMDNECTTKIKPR

| Compound | Ki [1, 3] [nM] | Ki [2, 4] [nM] | Ki ([2]; measured at 25° C. (no asterisk), TFA salt) [nM] | Ki ([2]; measured at 37° C. (*)) [nM] | Ki [1] [nM] |
| --- | --- | --- | --- | --- | --- |
| CN(C)C(=O)C1CCN(c2cccc3c2CCN(C(=O)c2cn(-c4cccc(Cl)c4F)nn2)C3C(=O)Nc2ccc(C(=O)O)cc2)CC1 (stereo not shown) [Example 56, 4-(2-(1-(3-chloro-2-fluorophenyl)-1H-1,2,3-triazole-4-carbonyl)-5-(4-(dimethylcarbamoyl)piperidin-1-yl)-1,2,3,4-tetrahydroisoquinoline-1-carboxamido)benzoic acid, TFA salt] | < 5 | 5.6 | – | – | – |
| O=C1CCC2(CCN(c3cccc4c3CCN(C(=O)c3cn(-c5cccc(Cl)c5F)cn3)C4C(=O)Nc3ccc(C(=O)O)cc3)CC2)O1 (stereo not shown) [Example 77, 4-(2-(1-(3-chloro-2-fluorophenyl)-1H-imidazole-4-carbonyl)-5-(2-oxo-1-oxa-8-azaspiro[4.5]decan-8-yl)-1,2,3,4-tetrahydroisoquinoline-1-carboxamido)benzoic acid, TFA salt] | < 5 | 7.96 | – | – | – |
| CN(C)C(=O)C1CCN(c2cccc3c2CCN(C(=O)c2cn(-c4cccc(Cl)c4F)nn2)[C@@H]3C(=O)Nc2ccc(C(=O)O)cc2)CC1 (single isomer, unassigned) [Example 58, TFA salt] | < 5 | 3.24 | – | – | – |
| CNC(=O)c1ccc(-c2cccc3c2CCN(C(=O)c2cn(-c4cccc(Cl)c4F)nn2)C3C(=O)Nc2ccc(CC(=O)O)cc2)cn1 (stereo not shown) [Example 117, 2-(4-(2-(1-(3-Chloro-2-fluorophenyl)-1H-1,2,3-triazole-4-carbonyl)-5-(6-(methylcarbamoyl)pyridin-3-yl)-1,2,3,4-tetrahydroisoquinoline-1-carboxamido)phenyl)acetic acid, TFA salt] | < 5 | 16.3 | – | – | – |
| CN(C)C(=O)C1CCN(c2cccc3c2CCN(C(=O)C2CC(c4cccc(Cl)c4F)=NO2)C3C(=O)Nc2ccc(C(=O)O)cc2)CC1 (single isomer, unassigned) [Example 279, 4-(2-(3-(3-chloro-2-fluoropheny)-4,5-dihydroisoxazole-5-carbonyl)-5-(4-(dimethylcarbamoyl)piperidin-1-yl)-1,2,3,4-tetrahydroisoquinoline-1-carboxamido)benzoic acid, TFA salt] | < 5 | – | 30.8 | – | – |
| O=C(Nc1ccc(-c2ncn[nH]2)cc1)C1c2cccc(-c3cncnc3)c2CCN1C(=O)c1cn(-c2cccc(Cl)c2F)nn1 (stereo not shown) [Example 131, N-(4-(1H-1,2,4-triazol-5-yl)phenyl)-2-(1-(3-chloro-2-fluorophenyl)-1H-1,2,3-triazole-4-carbonyl)-5-(pyrimidin-5-yl)-1,2,3,4-tetrahydroisoquinoline-1-carboxamide, TFA salt] | < 5 | – | – | 60.3 | – |
| COC1CCN(c2cccc3c2CCN(C(=O)c2cnn(-c4cccc(Cl)c4F)c2)[C@@H]3C(=O)Nc2ccc(C(=O)O)cc2)CC1 [Example 315, (S)-4-(2-(1-(3-chloro-2-fluorophenyl)-1H-pyrazole-4-carbonyl)-5-(4-methoxypiperidin-1-yl)-1,2,3,4-tetrahydroisoquinoline-1-carboxamido)benzoic acid, TFA salt] | < 5 | 19.6 | – | – | – |
| CN1CCC(NC(=O)c2cccc3c2CCN(C(=O)c2cn(-c4cccc(Cl)c4F)nn2)C3C(=O)Nc2ccc(C(=O)O)cc2)CC1 (stereo not shown) [Example 192, 4-(2-(1-(3-Chloro-2-fluorophenyl)-1H-1,2,3-triazole-4-carbonyl)-5-((1-methylpiperidin-4-yl)carbamoyl)-1,2,3,4-tetrahydroisoquinoline-1-carboxamido)benzoic acid, TFA salt] | 9.97 | 55.6 | – | – | – |
| O=C(O)c1ccc(NC(=O)C2c3cccc(OC4COC4)c3CCN2C(=O)c2cn(-c3cccc(Cl)c3F)nn2)cc1 (stereo not shown) [Example 123, 4-(2-(1-(3-Chloro-2-fluorophenyl)-1H-1,2,3-triazole-4-carbonyl)-5-(oxetan-3-yloxy)-1,2,3,4-tetrahydroisoquinoline-1-carboxamido)benzoic acid] | 7.69 | – | – | 21.1 | – |
| Cc1nn(C)c2c1C(C(=O)Nc1ccc(C(=O)O)cc1)N(C(=O)c1cn(-c3cccc(Cl)c3F)nn1)CC2 (stereo not shown) [Example 221, 4-(5-(1-(3-Chloro-2-fluorophenyl)-1H-1,2,3-triazole-4-carbonyl)-1,3-dimethyl-4,5,6,7-tetrahydro-1H-pyrazolo[4,3-c]pyridine-4-carboxamido)benzoic acid] | 179 | 9.56 | – | – | – |
| CN(C)CCNC(=O)c1ccc(-c2cccc3c2CCN(C(=O)c2cnn(-c4cccc(Cl)c4F)c2)C3C(=O)Nc2ccc(C(=O)O)cc2)cc1 (stereo not shown) [Example 8, 4-(2-(1-(3-Chloro-2-fluorophenyl)-1H-pyrazole-4-carbonyl)-5-(4-((2-(dimethylamino)ethyl)carbamoyl)phenyl)-1,2,3,4-tetrahydroisoquinoline-1-carboxamido)benzoic acid, TFA salt] | < 5 | 3.37 | – | – | – |
| O=C(NC12CCC(C(=O)O)(CC1)CC2)[C@@H]1c2cccc(-c3cncnc3)c2CCN1C(=O)c1cn(-c2cccc(Cl)c2F)nn1 (single isomer, unassigned; enantiomer a) [Example 144, 4-(2-{[1-(3-Chloro-2-fluorophenyl)-1H-1,2,3-triazol-4-yl]carbonyl}-5-(pyrimidin-5-yl)-1,2,3,4-tetrahydroisoquinoline-1-amido)bicyclo[2.2.2]octane-1-carboxylic acid, 1 TFA (enantiomer A)] | 3030 | – | – | 11600 | – |
| Nc1cccc2c1CCN(C(=O)c1cn(-c3cccc(Cl)c3F)nn1)C2C(=O)Nc1ccc(C(=O)O)cc1 (stereo not shown) [Example 334, 4-(5-Amino-2-(1-(3-chloro-2-fluorophenyl)-1H-1,2,3-triazole-4-carbonyl)-1,2,3,4-tetrahydroisoquinoline-1-carboxamido)benzoic acid, TFA salt] | 10.6 | 6.26 | – | – | – |
| CN(C)C(=O)C1CCN(c2cccc3c2CCN(C(=O)c2cnn(-c4cccc(Cl)c4F)c2)[C@H]3C(=O)Nc2ccc(C(=O)O)cc2)CC1 (single isomer, unassigned) [Example 60, TFA salt] | 47.8 | 698 | – | – | – |
| CC(=O)Nc1cccc2c1CCN(C(=O)c1cn(-c3cccc(Cl)c3F)nn1)C2C(=O)Nc1ccc(C(=O)O)cc1 (stereo not shown) [Example 191, 4-(5-Acetamido-2-(1-(3-chloro-2-fluorophenyl)-1H-1,2,3-triazole-4-carbonyl)-1,2,3,4-tetrahydroisoquinoline-1-carboxamido)benzoic acid] | 13.4 | 12.3 | – | – | – |
| O=C(O)c1ccc(NC(=O)C2c3ccccc3CCN2C(=O)c2cn(-c3cccc(Cl)c3F)nn2)cc1 (stereo not shown) [Example 1, 4-(2-(1-(3-Chloro-2-fluorophenyl)-1H-1,2,3-triazole-4-carbonyl)-1,2,3,4-tetrahydroisoquinoline-1-carboxamido)benzoic acid] | 13.5 | 20.8 | – | – | – |
| 4-(2-(3-Amino-1-(3-chloro-2-fluorophenyl)-1H-pyrazole-4-carbonyl)-5-(4-(2-(dimethylamino)ethoxy)piperidin-1-yl)-1,2,3,4-tetrahydroisoquinoline-1-carboxamido)benzoic acid, 2 TFA salt [Example 319] | < 5 | 6.41 | – | – | – |
| O=C(O)c1ccc(NC(=O)C2c3cccc(-c4ccc5c(c4)OCO5)c3CCN2C(=O)c2cn(-c3cccc(Cl)c3F)nn2)cc1 (stereo not shown) [Example 157, 4-(5-(benzo[d][1,3]dioxol-5-yl)-2-(1-(3-chloro-2-fluorophenyl)-1H-1,2,3-triazole-4-carbonyl)-1,2,3,4-tetrahydroisoquinoline-1-carboxamido)benzoic acid] | < 5 | 29.5 | – | – | – |
| COC1CCN(c2cccc3c2CCN(C(=O)c2cccc(-c4cccc(Cl)c4F)n2)C3C(=O)Nc2ccc(C(=O)O)cc2)CC1 (stereo not shown) [Example 325, 4-(2-(6-(3-Chloro-2-fluorophenyl)picolinoyl)-5-(4-methoxypiperidin-1-yl)-1,2,3,4-tetrahydroisoquinoline-1-carboxamido)benzoic acid, 2 TFA salt] | 2400 | – | – | > 6000 | – |
| COC1CCN(c2cccc3c2CCN(C(=O)c2cnn(-c4cccc(Cl)c4F)c2)[C@H]3C(=O)Nc2ccc(C(=O)O)cc2)CC1 [Example 316, (R)-4-(2-(1-(3-chloro-2-fluorophenyl)-1H-pyrazole-4-carbonyl)-5-(4-methoxypiperidin-1-yl)-1,2,3,4-tetrahydroisoquinoline-1-carboxamido)benzoic acid, TFA salt] | – | 578 | – | – | 42.9 |
| CN(C)CCNC(=O)c1ccc(-c2cccc3c2CCN(C(=O)c2cn(-c4cccc(Cl)c4F)nn2)C3C(=O)Nc2ccc(C(=O)O)cc2)cc1 (stereo not shown) [Example 6, 4-(2-(1-(3-Chloro-2-fluorophenyl)-1H-1,2,3-triazole-4-carbonyl)-5-(4-((2-(dimethylamino)ethyl)carbamoyl)phenyl)-1,2,3,4-tetrahydroisoquinoline-1-carboxamido)benzoic acid] | < 5 | 2.4 | – | – | – |
| CC(CO)(CO)COC(C)(C)C1CCN(c2cccc3c2CCN(C(=O)c2cnn(-c4cccc(Cl)c4F)c2)C3C(=O)Nc2ccc(C(=O)O)cc2)CC1 (stereo not shown) [Example 225, 4-(2-(1-(3-Chloro-2-fluorophenyl)-1H-pyrazole-4-carbonyl)-5-(4-(2-(3-hydroxy-2-(hydroxymethyl)-2-methylpropoxy)propan-2-yl)piperidin-1-yl)-1,2,3,4-tetrahydroisoquinoline-1-carboxamido)benzoic acid, TFA salt] | < 5 | 48.8 | – | – | – |
| O=C(O)c1ccc(NC(=O)C2c3cccc(-c4cccnc4)c3CCN2C(=O)c2cn(-c3cccc(Cl)c3F)nn2)cc1 (stereo not shown) [Example 33, 4-(2-(1-(3-chloro-2-fluorophenyl)-1H-1,2,3-triazole-4-carbonyl)-5-(pyridin-3-yl)-1,2,3,4-tetrahydroisoquinoline-1-carboxamido)benzoic acid, TFA salt] | < 5 | 9.54 | – | – | – |

Source: patent US9738655B2, “Tetrahydroisoquinolines containing substituted azoles as factor XIa inhibitors” (BRISTOL-MYERS SQUIBB COMPANY, priority 2013, dated 2017)
